Source: patent publication US4053632A, “Compounds of spiro-amine type and methods for their use” (priority 1971, dated 1977)
Entries after “also recorded” stand apart in the source; their conditions may differ. Where two headings read alike, the source gives them in different places.

Experiments:
l-Dopa response = assay: Dopa response potentiation test; type: in vivo, mouse
Method: This test is developed by G.M. Everett (Antidepressant drugs,[…] in groups of 3 are pretreated with Pargyline ®40 l mg/kg p.o. about 10-16 hours before the test. […] 1. piloerection, slight salivation, slight increased motor activity 2. piloerection, salivation, marked increased motor activity and irritability 3. piloerection, profuse salivation, marked irritability and reactivity, jumping, squeaking, fighting.

[1] = tested on: uptake of 5-HT (midbrain slices); assay: Inhibition of the uptake of tritiated 5-HT in vitro (brain slices); type: biochemical, mouse
in vivo = conditions: mouse
Method: (§1) The compounds were given by intravenous route to 3 mice. […] Seizures, gait, sedation and grip strength were recorded.
(§2) Acute toxicity was tested by the intraveneous, intraperitoneal and oral routes of administration. […] During the oral route a behavioral scoring system was used in order to relate changes in behavior to dose. The LD50 values were determined graphically from log dose -- response curves based on four doses with three animals per dose. Peripheral parasympatholytic effect was tested in mice by observing the mydriatic effect after intravenous injection (9) (four doses with three animals per dose). PD200 refers to the dose which increases the pupil width by 200%.

pupil width (mydriasis) [2] = assay: Peripheral anticholinergic (parasympatholytic) effect, mydriasis in mice; conditions: for Peripheral anti-cholinergic action PD200: i.v., dose increasing the pupil by 200%
Method: as §1, §2

[3] = tested on: uptake of 5-HT (midbrain slices); assay: Inhibition of the uptake of tritiated 5-HT in vivo; design: species or system mouse; conditions: Mus musculus, ip, 0.5 h; i.p., in vivo; read-out: Inhibition (50 %) of uptake in vivo, 5-HT
Method: The drugs were administered intraperitoneally half an hour before the animals were killed and the midbrain was taken out and sliced and incubated in a mixture consisting of, per 100 mg of brain slices, 0.2 μmole of ^3 H-5-HT and 1 μmole of glucose in 2 ml of Krebs-Henseleit buffer, pH 7.4. The incubation time was 5 minutes with 5 minutes of preincubation before ^3 H-5-HT was added. The radioactive ^3 H-5-HT taken up in the slices was extracted with ethanol and the amount was determined by liquid scintillation. The dose producing 50 per cent decrease of the active uptake (ED50) was determined graphically from dose response curves. Active uptake is defined as that part of the radioactive uptake which is inhibited by a high concentration of cocaine. All doses were given at least to four animals.

[4] = tested on: uptake of noradrenaline (cortex slices); assay: Inhibition of the uptake of tritiated noradrenaline in vitro (brain slices); type: biochemical; conditions: dl-noradrenaline 10^-7 M
[5] = tested on: uptake of noradrenaline (cortex slices); assay: Inhibition of the uptake of tritiated noradrenaline in vivo; conditions: for ED50: ip, read-out: Inhibition (50 %) of uptake in vivo, NA; for effectiveness in blocking the uptake of noradrenaline in vivo relative to imipramine: versus imipramine
Method: The animals were killed half or one hour after the administration of the drugs in vivo (i.p.). The slices, made from cortex, were preincubated for five minutes and incubated with 0.1 μmole per ml of ^3 H-noradrenaline for further five minutes. The incubation mixture consisted of 0.2 μmole of ^3 H-NA and the brain slices in 2 ml of Krebs-Henseleits buffer, pH 7.4. The radioactive ^3 H-NA taken up in the slices was extracted with ethanol and the amount was determined by liquid scintillation. The dose producing 50 per cent decrease of the active uptake (ED50) was determined graphically from dose response curves. At least four animals were used at each dose level.

5-HTP response = 5-HTP response potentiation test; type: in vivo, mouse; conditions: for minimal effective dose: Mus musculus, ip
Method: These small movements are quantitatively measured in an activity box, type Animex, which can distinguish between small and gross movements. The activity is measured during 20 minutes and only in the case the animals have a fullblown syndrome.

motor activity = assay: Motor activity in mice; type: in vivo, mouse; conditions: mice; for ED50: Mus musculus, 1 h
Method: The exploratory activity of mice was recorded in a locomotion cage in which the movements were counted each time the animals cross-circuits on electrical current in the bottom plate. […] The animals were tested individually. Groups of six mice were used and the mice were only used once. The activity was expressed in percent of the activity of control groups ran simultaneously.
Sedative activity was defined as suppression of normal motor activity. The motor activity in mice was automatically recorded in a locomotion cage in which the movements are counted each time the animal short-circuits an electrical current in the bottom plate. […] The animals were tested individually. Groups of six mice were used. The activity was expressed in percent of the activity of control groups run simultaneously.

pupil width (mydriasis) [6] = conditions: mouse, in vivo, iv, 10 min
Method: as §1, §2

mice = assay: Acute toxicity in mice; conditions: in words
Method: as §1, §2

[7] = tested on: conditioned avoidance response (CAR); assay: Conditioned avoidance response in rats; type: in vivo, rat; conditions: rat; for CAR CD50: i.p., 60 min; for effect on conditioned avoidance response: in words
Method: For this reason the conditioned avoidance test has been developed for initial screening of neuroleptics. Rats were trained to avoid electrical shock by jumping from one compartment to the other in a shuttle box. The conditioned stimulus consists of an auditory signal which after eight seconds was followed by the electrical shock. The rates were trained to a criterion of making eight out of ten responses correctly. The drugs were injected one hour before the test. The avoidance responses are expressed in percentage of those before administration. CD50 is the dose which reduces the avoidance response to 50% of control values.

[8] = Mus musculus, ip; read-out: Potentiation of l-Dopa, effective dose

CN(C)CCC=C1c2ccccc2CCc2ccccc21 [Amitriptyline, reference compound]
l-Dopa syndrome score (l-Dopa response; 20 mg/kg i.p. 4 hours before l-Dopa): three

CN(C)C1C=CC2(CC1)c1ccccc1C=Cc1ccccc12 (stereo not drawn) [CPG 146]
Inhibition (50 %) of uptake in vitro, 5-HT [1]: 4 µg/mL | LD50 at 24 h (in vivo; iv): 30 mg/kg | Peripheral anti-cholinergic action PD200 (pupil width (mydriasis) [2]): 1 mg/kg | ED50 [3]: > 40 mg/kg | Inhibition (50 %) of uptake in vitro, NA [4]: 0.02 µg/mL | ED50 [5]: 1.7 mg/kg | effectiveness in blocking the uptake of noradrenaline in vivo relative to imipramine [5]: about three times as effective as imipramine

CN(C)C1CCC2(CC1)c1ccccc1C=Cc1ccccc12 [CPG 147]
minimal effective dose (5-HTP response): > 25 mg/kg | Inhibition (50 %) of uptake in vitro, 5-HT [1]: 4 µg/mL | ED50 (motor activity; read-out: Motor activity ID50): 27 mg/kg | LD50 at 24 h (in vivo; iv): 32 mg/kg | Peripheral anti-cholinergic action PD200 (pupil width (mydriasis) [2]): 1 mg/kg | ED50 [3]: > 40 mg/kg | minimal effective dose (l-Dopa response; [8]): 2.5 mg/kg | Inhibition (50 %) of uptake in vitro, NA [4]: 0.05 µg/mL | ED50 [5]: 1.5 mg/kg | effectiveness in blocking the uptake of noradrenaline in vivo relative to imipramine [5]: about three times as effective as imipramine

CNC1CCC2(CC1)c1ccccc1C=Cc1ccccc12 [CPG 148]
minimal effective dose (5-HTP response): > 25 mg/kg | Inhibition (50 %) of uptake in vitro, 5-HT [1]: 3 µg/mL | ED50 (motor activity; read-out: Motor activity ID50): 35 mg/kg | LD50 at 24 h (in vivo; iv): 60 mg/kg | Peripheral anti-cholinergic action PD200 (pupil width (mydriasis) [2]): 3.5 mg/kg | ED50 [3]: > 40 mg/kg | minimal effective dose (l-Dopa response; [8]): > 10 mg/kg | Inhibition (50 %) of uptake in vitro, NA [4]: 1.5 µg/mL | ED50 [5]: > 40 mg/kg

NC1CCC2(CC1)c1ccccc1C=Cc1ccccc12 [CPG 191]
Peripheral anti-cholinergic action PD200 (pupil width (mydriasis) [6]): < 10 mg/kg | minimal effective dose (5-HTP response): > 25 mg/kg | Inhibition (50 %) of uptake in vitro, 5-HT [1]: 2 µg/mL | ED50 (motor activity; read-out: Motor activity ID50): 53 mg/kg | LD50 at 24 h (in vivo; iv): 32 mg/kg | ED50 [3]: > 40 mg/kg | minimal effective dose (l-Dopa response; [8]): > 10 mg/kg | Inhibition (50 %) of uptake in vitro, NA [4]: 1.5 µg/mL | ED50 [5]: > 40 mg/kg

CNC1C=CC2(CC1)c1ccccc1C=Cc1ccccc12 (stereo not drawn) [CPG 264]
minimal effective dose (5-HTP response): > 25 mg/kg | Inhibition (50 %) of uptake in vitro, 5-HT [1]: 1.3 µg/mL | ED50 (motor activity; read-out: Motor activity ID50): 13 mg/kg | LD50 at 24 h (in vivo; iv): 25 mg/kg | Peripheral anti-cholinergic action PD200 (pupil width (mydriasis) [2]): 2.5 mg/kg | ED50 [3]: > 40 mg/kg | minimal effective dose (l-Dopa response; [8]): > 10 mg/kg | Inhibition (50 %) of uptake in vitro, NA [4]: 0.3 µg/mL | ED50 [5]: 1.3 mg/kg | effectiveness in blocking the uptake of noradrenaline in vivo relative to imipramine [5]: about three times as effective as imipramine

CN(C)CCCN1c2ccccc2CCc2ccccc21 [Imipramine, reference compound]
minimal effective dose (5-HTP response): 25 mg/kg | potentiation of dl-5-HTP (5-HTP response; reference, in words): constantly potentiated dl-5-HTP | Inhibition (50 %) of uptake in vitro, 5-HT [1]: 0.1 µg/mL | ED50 (motor activity; read-out: Motor activity ID50): 45 mg/kg | Peripheral anti-cholinergic action PD200 (pupil width (mydriasis) [2]): 13 mg/kg | anticholinergic effects (pupil width (mydriasis) [2]; in words): anticholinergic effects shared by imipramine | ED50 [3]: 24 mg/kg | minimal effective dose (l-Dopa response; Mus musculus, ip, read-out: Potentiation of l-Dopa, effective dose): 10 mg/kg | Inhibition (50 %) of uptake in vitro, NA [4]: 0.06 µg/mL | ED50 [5]: 6 mg/kg

CN(C)C1C=CC2(CC1)c1ccccc1C=Cc1ccc(Cl)cc12 (stereo not drawn) [SIR 114]
PD200 (Table 4) (pupil width (mydriasis) [6]): 15 mg/kg | Peripheral anti-cholinergic action PD200 (pupil width (mydriasis) [6]): 15 mg/kg | minimal effective dose (5-HTP response): > 25 mg/kg | Inhibition (50 %) of uptake in vitro, 5-HT [1]: 7 µg/mL | acute toxicity versus CPZ (mice): intravenous toxicity in the same range as CPZ | ED50 (motor activity; read-out: Motor activity ID50): 5.5 mg/kg | ED50 (motor activity; ip, i.p., read-out: Motor activity ID50 (Table 4)): 5.5 mg/kg | sedation (motor activity) versus CPZ (motor activity; in words): caused sedation in the mice at about the same dose as CPZ | LD50 at 24 h (in vivo; ip): 130 mg/kg | LD50 at 24 h (in vivo; iv): 22 mg/kg | ED50 [3]: > 40 mg/kg | minimal effective dose (l-Dopa response; [8]): > 10 mg/kg | Inhibition (50 %) of uptake in vitro, NA [4]: 2.5 µg/mL | ED50 [5]: > 40 mg/kg

CN(C)C1C=CC2(CC1)c1ccccc1CCc1ccc(Cl)cc12 (stereo not drawn) [SIR 124]
CAR CD50 [7]: > 10 mg/kg | effect on conditioned avoidance response [7]: relatively weak effect on CAR

CN(C)C1C=CC2(CC1)c1ccccc1CCc1ccc(Cl)cc12 (stereo not drawn) [SIR 125]
CAR CD50 [7]: < 2.5 mg/kg | effect on conditioned avoidance response [7]: more potent than the racemate SIR 109 and also more potent than CPZ; also recorded: more potent than both SIR 109 and chlorpromazine | effect on conditioned avoidance response ([7]; listed as β-isomer): the biological activity mainly originates from the β-isomer
